{"source": "paper PMC5374710", "about": "“Discovery of the first dual GSK3β inhibitor/Nrf2 inducer. A new multitarget therapeutic strategy for Alzheimer’s disease” (Scientific Reports, 2017)", "system": "Nrf2", "assay": "Luciferase activity in AREc32 cells after scramble or GSK3β siRNA", "format": "cell-based, human", "details": "10 μM, 24 h", "experimental": "To further evaluate the potential relationship between GSK3β inhibition and the Nrf2 induction properties we used two different approaches. […] Cells were treated with compound 5m at increasing concentrations alone or in presence of Li (10 mM) during 24 h and thereafter, luciferase activity was evaluated. […] Secondly, to corroborate the independence of the Nrf2 induction properties of our derivatives from their GSK3β inhibitory properties, we used GSK3β knock down experimental conditions using siRNA. […] After knockdown of GSK3β, AREc32 cells were incubated with compound 5m (10 μM) during 24 h (Fig. 4B). Subsequently, luciferase activity and HO-1 expression were analyzed. […] Similar results were obtained when HO-1 expression was analyzed (Fig. 4D), compound 5m increased HO-1 expression 3.9 times after scramble treatment and 3.5 times after knockdown of GSK3β showing no statistical differences between both conditions. […]\nFigure 4 Nrf2 induction properties are independent of the GSK3β inhibitory activity. […] (D) HO-1 expression induced by compound 5m (10 μM) measured at the same experimental conditions used previously. Values are expressed as mean ± SEM of three independent experiments in duplicate. ^###p < 0.001; ^##p < 0.01; ^#p < 0.05 compared to the correspondent basal conditions. […]", "data": [{"smiles": "Cc1[nH]nc2c1C(c1ccc(Br)cc1)C(C#N)=C(N)O2", "note": "(centres unmarked) [Compound 5m, 6-Amino-4-(4-bromophenyl)-3-methyl-2,4-dihydropyrano[2,3-c]pyrazole-5-carbonitrile]", "values": [{"measurement": "Luciferase activity fold increase compared to basal conditions", "setting": "GSK3β silenced (siGSK3β)", "value": 2.8, "unit": "fold"}, {"measurement": "Luciferase activity fold increase compared to basal conditions", "setting": "cells previously treated with scramble control siRNA", "value": 2.2, "unit": "fold"}]}]}
